Consider 1 compound from US20110104361A1, “TASTE-IMPROVING AGENT FOR POTASSIUM SALT OR POTASSIUM SALT-CONTAINING FOOD OR DRINK” (OGAWA & CO., LTD., priority 2008, published 2011).

Test [1] in a line: Organoleptic evaluation, potassium chloride aqueous solution (Test Example 5). Particulars: 0.75 wt % KCl aqueous solution; addition quinic acid-containing composition 5.0 ppm, spilanthol 0.1 ppm, shallot extract 10.0 ppm; panel of 10 experts vs control without agent. The method, then: The taste-improving agents obtained in Production Examples 1-5 were used to examine the taste-improving effects on potassium salts or potassium salt-containing foods or drinks. [table] To a 0.75 wt % potassium chloride aqueous solution there were added each of the agents for improving taste of Production Examples 1-5, so that the content of the quinic acid-containing compositions (Production Examples 1 and 2), spilanthol (Production Examples 3 and 4) or shallot extract (Production Example 5) in the potassium chloride aqueous solution was as listed in Table 2, and an organoleptic evaluation was conducted by a panel of 10 experts based on the rating scale shown in Table 1, with a product containing no agent for improving taste according to the invention, as the control.

Test [2] in a line: Organoleptic evaluation, meat sauce (Test Example 14). The note with it: addition quinic acid-containing composition 5.0 ppm, spilanthol 0.1 ppm, shallot extract 10.0 ppm, panel of 10 experts vs control. The method, then:
(§1) The taste-improving agents obtained in Production Examples 1-5 were used to examine the taste-improving effects on potassium salts or potassium salt-containing foods or drinks. [table] To reduced-sodium meat sauce having the following formulation 8 there were added each of the agents for improving taste of Production Examples 1, 2, 4 and 5 so that the contents of the quinic acid-containing compositions (Production Examples 1 and 2), purified spilanthol (Production Example 4) and shallot extract (Production Example 5) in the meat sauce were as listed in Table 12, and an organoleptic evaluation was conducted by a panel of 10 experts based on the rating scale shown in Table 1, with a product containing no agent for improving taste according to the invention, as the control. [table]

Test [3] can be described thus: Organoleptic evaluation, cream stew (second Test Example 13). Particulars: addition quinic acid-containing composition 5.0 ppm, spilanthol 0.1 ppm, shallot extract 10.0 ppm, panel of 10 experts vs control. The method, then:
as §1, with “reduced-sodium cream stew” for “reduced-sodium meat sauce”, “formulation 7” for “formulation 8”, “the stew” for “the meat sauce”, “Table 11,” for “Table 12,”

Test [4] in a line: Organoleptic evaluation, ramen soup (Test Example 11). Particulars: addition quinic acid-containing composition 5.0 ppm, spilanthol 0.1 ppm, shallot extract 10.0 ppm, panel of 10 experts vs control. The method, then:
The taste-improving agents obtained in Production Examples 1-5 were used to examine the taste-improving effects on potassium salts or potassium salt-containing foods or drinks. [table] To reduced-sodium ramen soup having the following formulation 4 there were added each of the agents for improving taste of Production Examples 2, 4 and 5 so that the contents of the quinic acid-containing composition (Production Example 2), purified spilanthol (Production Example 4) and shallot extract (Production Example 5) in the soup were as listed in Table 8, and an organoleptic evaluation was conducted by a panel of 10 experts based on the rating scale shown in Table 1, with a product containing no agent for improving taste according to the invention, as the control. [table] A 20 g portion of the powder above was dissolved in 500 g of hot water.

The structures appear in SMILES notation.

As for `CC=CC=CCCC=CC(=O)NCC(C)C` [Purified spilanthol (Prod. Ex. 4), N-isobutyl-2,6,8-decatrieneamide], the Metallic taste result in test [1] is recorded as “++ (Noticeable effect (at least 5/10 panelists noticed an effect compared to the control))”. Moreover, in test [2], the Meat flavor entry is listed as “− (No effect/change (fewer than 3/10 panelists noticed an effect compared to the control))”, the Metallic taste entry is given as “+ (Somewhat noticeable effect (at least 3/10 panelists noticed an effect compared to the control))” and the Tomato flavor result is reported as “− (No effect/change (fewer than 3/10 panelists noticed an effect compared to the control))”. In test [3], the Milk flavor entry is given as “− (No effect/change (fewer than 3/10 panelists noticed an effect compared to the control))”, the Sweet taste result was “− (No effect/change (fewer than 3/10 panelists noticed an effect compared to the control))” and the Unpleasant taste result is “+ (Somewhat noticeable effect (at least 3/10 panelists noticed an effect compared to the control))”. In addition, in test [4], the Chicken flavor result was “− (No effect/change (fewer than 3/10 panelists noticed an effect compared to the control))”, the Salty taste result was “+ (Somewhat noticeable effect (at least 3/10 panelists noticed an effect compared to the control))” and the Unpleasant taste result was “+ (Somewhat noticeable effect (at least 3/10 panelists noticed an effect compared to the control))”.
